Values of other authors in publication PMC10655862 (Methods in enzymology, 2023).
Read-outs that look alike come from different tables or passages of the source.

Experiments:
AKR1D1 = conditions: 5β-reduction, fluorometric, pH 6.0, 37 °C; ref Chen et al., (2011)
AKR1C3 = conditions: AKR1C3, competitive inhibition (C); ref Bauman et al. (2005)
AKR1D1 (5β-reductase) = conditions: ref Chen et al., (2011); for Type of inhibition (5β-reductase): inhibition of testosterone reduction; for inhibition of AKR1D1, in words: reduction of [4-14C]-testosterone
AKR1C1 = conditions: AKR1C1, competitive inhibition (C); ref Bauman et al. (2005)
AKR1C2 = conditions: AKR1C2, competitive inhibition (C); ref Bauman et al. (2005)
[1] = molecular target: 5α-reductase type 2 (SRD5A2); conditions: ref Bull et al. (1996)
aldose reductase AKR1B1 = conditions: NADPH binding to AKR1B1, literature comparison; ref not given

| Structure (SMILES) | Km (AKR1D1) [µM] | inhibition of AKR1D1, in words (AKR1D1 (5β-reductase)) | further results |
| --- | --- | --- | --- |
| C[C@]12CC[C@H]3[C@@H](CCC4=CC(=O)C=C[C@@]43C)[C@@H]1CC[C@@H]2O [1,4-Androstadien-17β-ol-3-one] | 3.2 ± 0.2 | – | – |
| O=C(O)c1ccc(C(=O)c2ccccc2)cc1 [4-Benzoylbenzoic acid] | – | ineffective | Ki (AKR1C3): 1900 nM; Type of inhibition (5β-reductase) (AKR1D1 (5β-reductase)): n.i.; Ki (AKR1C1): 12500 nM; Ki (AKR1C2): 13300 nM |
| CC(C)CCC[C@@H](C)[C@H]1CC[C@H]2[C@@H]3[C@H](O)CC4=CC(=O)CC[C@]4(C)[C@H]3CC[C@]12C [4-Cholesten-7α-ol-3-one] | 0.8 ± 0.2 | – | – |
| C[C@]12CC[C@H]3[C@@H](CCC4=CC(=O)CC[C@@H]43)[C@@H]1CC[C@@H]2O [4-Estren-l7β-ol-3-one] | 3 ± 0.5 | – | – |
| C[C@H](CCC(=O)O)[C@H]1CC[C@H]2[C@@H]3[C@H](O)C[C@@H]4C[C@H](O)CC[C@]4(C)[C@H]3CC[C@]12C [Chenodeoxycholic acid] | – | weak non-competitive inhibitors | Ki (AKR1C3): 10000 nM; Ki (AKR1C1): 8300 nM; Ki (AKR1C2): 17 nM |
| CC(C)CCC[C@@H](C)[C@H]1CC[C@H]2[C@@H]3CCC4=CC(=O)CC[C@]4(C)[C@H]3CC[C@]12C [Cholestenone] | 0.3 ± 0.1 | – | – |
| C[C@]12C[C@H](O)[C@H]3[C@@H](CCC4=CC(=O)CC[C@@]43C)[C@@H]1CC[C@@H]2C(=O)CO [Corticosterone] | 2.2 ± 0.5 | – | – |
| C[C@]12CCC(=O)C=C1CC[C@@H]1[C@@H]2[C@@H](O)C[C@@]2(C)[C@H]1CC[C@]2(O)C(=O)CO [Cortisol] | 13.1 ± 1.8 | – | – |
| C[C@]12CCC(=O)C=C1CC[C@@H]1[C@@H]2C(=O)C[C@@]2(C)[C@H]1CC[C@]2(O)C(=O)CO [Cortisone] | 15.1 ± 0.3 | – | – |
| C[C@]12CC[C@H]3[C@@H](CCC4=CC(=O)CC[C@@]43C)[C@@H]1CC[C@H]2O [Epitestosterone] | 2.9 ± 0.6 | – | – |
| CC(C)(C)NC(=O)[C@H]1CC[C@H]2[C@@H]3CC[C@H]4NC(=O)C=C[C@]4(C)[C@H]3CC[C@]12C [Finasteride] | – | competitive inhibitor | Ki ([1]; competitive inhibition (C)): 26 nM; Ki ([1]; mechanism-based inhibition (MBI)): < 1 nM |
| COc1ccc2c(c1)c(CC(=O)O)c(C)n2C(=O)c1ccc(Cl)cc1 [Indomethacin] | – | ineffective | Type of inhibition (5β-reductase) (AKR1D1 (5β-reductase)): n.i. |
| Cc1cccc(Nc2ccccc2C(=O)O)c1C [Mefenamic acid] | – | ineffective | Type of inhibition (5β-reductase) (AKR1D1 (5β-reductase)): n.i.; Ki (AKR1C1): 800 nM |
| NC(=O)C1=CN([C@@H]2O[C@H](COP(=O)(O)OP(=O)(O)OC[C@H]3O[C@@H](n4cnc5c(N)ncnc54)[C@H](OP(=O)(O)O)[C@@H]3O)[C@@H](O)[C@H]2O)C=CC1 [NADPH] | – | – | Kd (aldose reductase AKR1B1): 9 nM |
| C[C@]12CC[C@H]3[C@@H](CCC4=CC(=O)CC[C@@]43C)[C@@H]1CC[C@@H]2O [Testosterone] | 2.7 ± 1.2 | – | – |
| C[C@H](CCC(=O)O)[C@H]1CC[C@H]2[C@@H]3[C@@H](O)C[C@@H]4C[C@H](O)CC[C@]4(C)[C@H]3CC[C@]12C [Ursodeoxycholic acid] | – | weak non-competitive inhibitors | Ki (AKR1C3): 1300 nM; Ki (AKR1C1): 4900 nM; Ki (AKR1C2): 11 nM |
| C[C@]12CCC(=O)C=C1CC[C@@H]1[C@@H]2CC[C@]2(C)C(=O)CC[C@@H]12 [Δ^4-Androstene-3,17-dione] | 0.9 ± 0.2 | – | – |
